Measurements: patent US8383578B2, “Peptides, derivatives and analogs thereof, and methods of using same” (CureDM Group Holdings, LLC, priority 2005, dated 2013)
Entries after “also recorded” stand apart in the source; their conditions may differ.

Experiments:
type 1 patients = details: cited from earlier work
diabetic patients = details: cited from earlier work
[1] = test system: human pancreatic ductal tissue cultures; experiment: Insulin production in human pancreatic ductal tissue cultures, ELISA; format: cell-based; details: for insulin production vs Peptide 4 (hamster INGAP) and Peptide 5 (scrambled) (FIG. 4): after 10 days, Rosenberg protocol, samples 5 μg total protein in duplicate; for insulin production vs hamster INGAP and scrambled control (FIG. 7A): two concentrations of peptide (3 μM and 1 mM)
Experimental: (§1) Human pancreatic tissue was treated as described in Example 1 and Insulin production was measured by ELISA assay. FIGS. 4 and 5 show the results of this experiment to show a dose response and to again compare the effect of HIP on the two different fractions of tissue as compared to the hamster INGAP sequence and a scrambled negative peptide sequence. […] The results in FIG. 4 involve the use of 5 μg of each peptide, while the results in FIG. 5 were acquired using 0.002 μg of each peptide.

[2] = test system: human pancreatic islet tissue cultures; experiment: Insulin production in human pancreatic islet tissue cultures, ELISA; format: cell-based; details: for insulin production vs Peptide 4 (hamster INGAP) and Peptide 5 (scrambled) (FIG. 5): after 10 days, Rosenberg protocol, 0.002 μg of each peptide in duplicate; for insulin production vs hamster INGAP and scrambled control (FIG. 7B): two concentrations of peptide (3 μM and 1 mM)
Experimental: as §1

[3] = test system: human pancreatic islet tissue; experiment: Insulin production in human pancreatic islet tissue culture, radioimmunoassay; format: cell-based; details: 1 mM for a final culture concentration of 500 nM
Experimental: (§2) Human pancreatic islet and progenitor fractions were cultured over 10 days, according to standard protocol. Briefly, pancreata from adult human cadaveric organ donors were obtained through the local organ procurement organization. Islets were isolated according to established protocols described by Bonner-Weir and Jamal. (Bonner-Weir et al., Pediatric Diabetes: 2004; 5(Suppl 2):16-22. Jamal et al., Cell Death Differ. 2005 July; 12(7):702-12).
(§3) Following removal of the organ, cold ischemia time was no more than 8 hours prior to islet isolation. The main pancreatic duct was cannulated and perfused with Liberase HI (Roche Diagnostics). The perfused organ was placed in a closed system (Ricordi Apparatus) and heated to 37° C. to activate the enzyme blend. Following the appearance of free islets in samples, the system was cooled and free tissues were collected and washed. Tissues were applied to a continuous density gradient created using Ficoll (Biochrom KG) in a cell processor (COBE). Free islets with diameters ranging from 75 to 400 μm, determined to be greater than 90% pure by staining with dithizone (Sigma) a zinc chelater, were collected and washed. IHC to detect the presence of amylase and cytokeratin was negative, consistent with the absence of progenitor and exocrine tissue. The progenitor fraction from this separation was also collected for culture.
(§4) Isolated islets were embedded in a type 1 collagen matrix at a density of 2000 islet equivalents/25 cm^2 and cultured in DMEM/F12 containing 10% FBS, 1 μM dexamethasone, 10 ng/ml EGF, 24 mU/ml insulin and 100 ng/ml cholera toxin. Medium was changed every other day. On day 10, culture was continued in the above medium, without the cholera toxin, with neogenic agents and inhibitors at the final concentrations listed below. Medium was changed every other day. Collagen-embedded cultures were harvested by incubating with 0.25 g/L collagenase XI (Sigma) for 30 minutes at 37° C. […]
(§5) Insulin levels were detected by Radioimmunoassay (RIA) from cultures treated with saline only, scrambled peptide, SEQ ID NOs: 7, 3 or 2 and hamster INGAP. […]

[4] = test system: human pancreatic ductal tissue culture; experiment: Insulin production in human pancreatic ductal tissue culture, radioimmunoassay; format: cell-based; details: 3.3 μM (final culture concentration of 165 nM)
Experimental: as §2, §3, §4, §5

NOD mice = experiment: HIP treatment of non-obese diabetic (NOD) mice; format: in vivo, mouse; details: HIP 1 μg/kg/day to 100 mg/kg/day, protocol example
Text: Animal Model. The non-obese diabetic (NOD) mouse strain has long been studied as an excellent model of type 1 diabetes because it spontaneously develops a disease that is very similar to the human condition. Delovitch, T. L., and Singh, B. 1997. Immunity. 7:727-738. Diabetes in NOD mice is mediated by inflammatory autoreactive T cells that recognize pancreatic islet antigens and escape central and peripheral tolerance.
Procedure: In a parental colony of NOD mice, incidence of diabetes in female NOD mice is typically 75-90% by 30 weeks but may exceed 90% in some cohorts. […] Doses of HIP range from 1 μg/kg/day to 100 mg/kg/day.
Treatment. Cohorts are treated in 2 arms with 2-4 dose ranges of HIP and a placebo, at a compensated dose for animal size, metabolism and circulation, or about 1/6 the mg/kg equivalence. Arm 1: saline, Arm 2: HIP.
Study Assessment. Blood glucose levels are measured every week with a One Touch II glucose meter (Lifescan). Mice are considered diabetic after 2 consecutive measurements over 300 mg/dl. For histological analysis, pancreases are snap-frozen. Multiple 5-μm sections are stained with hematoxylin and eosin and scored blindly for severity of insulitis as known in the art.

[5] = test system: human pancreatic progenitor cells; experiment: Islet generation in human ductal tissue culture, inverted microscopy; format: cell-based; details: ductal/progenitor tissue fraction culture treated with HIP; listed as HIP
Experimental: A human ductal tissue fraction was isolated and cultured as described in Example 1. After 10 days of culture, cells were treated with HIP for four days and observed using inverted microscopy. […] Islets have formed what has previously been described as ductal epithelial cysts and are starting to bud at one end where a progenitor cell resides. […] In this panel the darkening of the budding portion of the ductal epithelial cyst indicates the differentiation of cells consistent with previously shown changes that occur with hamster INGAP treatment in vitro.

[6] = dosages up to 10,000 IU/day; cited from earlier work

Compound	insulin production vs Peptide 4 (hamster INGAP) and Peptide 5 (scrambled) (FIG. 4) [1]	insulin production vs hamster INGAP and scrambled control (FIG. 7A) [1]	insulin production vs Peptide 4 (hamster INGAP) and Peptide 5 (scrambled) (FIG. 5) [2]	insulin production vs hamster INGAP and scrambled control (FIG. 7B) [2]	insulin production vs INGAP peptide and scrambled negative control (FIG. 2) [3]	insulin production vs INGAP peptide and scrambled negative control (FIG. 1) [4]	further results
CC[C@H](C)[C@H](NC(=O)[C@@H]1CCCN1C(=O)CNC(=O)[C@H](Cc1ccccc1)NC(=O)[C@H](CC(N)=O)NC(=O)[C@H](CC(N)=O)NC(=O)[C@H](CO)NC(=O)[C@H](CO)NC(=O)[C@H](Cc1c[nH]cn1)NC(=O)[C@@H](NC(=O)[C@H](CC(C)C)NC(=O)[C@H](Cc1ccccc1)NC(=O)[C@H](CC(N)=O)NC(=O)[C@H](C)NC(=O)[C@H](CC(C)C)NC(=O)[C@H](CCCNC(=N)N)NC(=O)[C@H](CCC(N)=O)NC(=O)[C@@H](NC(=O)[C@H](C)NC(=O)[C@@H]1CSSC[C@H](NC(=O)[C@@H](N)CCCCN)C(=O)N[C@@H](CC(N)=O)C(=O)N[C@@H]([C@@H](C)O)C(=O)N[C@@H](C)C(=O)N[C@@H]([C@@H](C)O)C(=O)N1)[C@@H](C)O)C(C)C)C(=O)N[C@@H](CC(C)C)C(=O)N1CCC[C@H]1C(=O)N1CCC[C@H]1C(=O)N[C@H](C(=O)N[C@@H](CC(N)=O)C(=O)N[C@H](C(=O)NCC(=O)N[C@@H](CO)C(=O)N[C@@H](CC(N)=O)C(=O)N[C@H](C(=O)N[C@@H](Cc1ccc(O)cc1)C(N)=O)[C@@H](C)O)C(C)C)[C@@H](C)O [Pramlintide]							glycemic excursions and pre-meal insulin requirements (type 1 patients): reduce glycemic excursions
IGLHDPSHGTLPNGS (listed as Hamster sp.) [hamster INGAP]							patients with a >50% increase in GAD65 antibody titers (diabetic patients; 300 mg/day treatment group, Phase II study): 22%; C-peptide secretion (diabetic patients; 600 mg/day): increase; effectiveness (diabetic patients; Phase II trial): Little effectiveness; patient drop out due to discomfort and bruising at injection site (diabetic patients; human, in vivo): high drop out; tolerability (diabetic patients; human, in vivo): well tolerated; hemoglobin A1C (diabetic patients; type 2 diabetes patients): fell
WIGLHDPTQGTEPNG [HIP1]	increased insulin production	increased insulin production	increased insulin production	increased insulin production	increased insulin production	increased insulin production	
IGLHDPTQGTEPNG (listed as Homo sapiens) [HIP2]	increased insulin production	increased insulin production	increased insulin production	increased insulin production	increased insulin production	increased insulin production	
IGLHDPTQGTEPNGE (listed as Homo sapiens) [HIP3]	increased insulin production	increased insulin production	increased insulin production	increased insulin production	increased insulin production	increased insulin production	blood glucose levels (NOD mice): pronounced reduction; insulitis in pancreases (histology) (NOD mice): decreased showing of insulinitis; new islet structure formation in culture (micrographs) [5]: Morphological changes show islet like structure; also recorded: New islet structure has formed; also recorded: forming a nidus of new insulin producing islets; also recorded: forming insulin producing islet like structure
C=C1CC[C@H](O)C/C1=C/C=C1\CCC[C@]2(C)[C@@H]([C@H](C)CCCC(C)C)CC[C@@H]12 [Vitamin D, cholecalciferol]							adverse effects [6]: No adverse effects
